Earlier results, collected in patent US20240100062A1, “Methods of Treatment With an Iboga Alkaloid” (priority 2022, published 2024).

Legend:
[1] = test system: N-methyl-D-aspartate, kappa and mu opioid, sigma-1 and -2, nicotinic acetylcholine, serotonin transporter, and dopamine transporter; conditions: cited from earlier work
[2] = in vivo; cited from earlier work

Noribogaine
Affinity for neurotransmitter receptors [1]: moderate-to-weak affinity
half-life [2]: 28 to 49 h
